Experimental data published in patent US20240392302A1, “METHOD FOR DETECTING AND QUANTIFYING RNA” (FLUORESCENCE DIAGNOSIS (SHANGHAI) BIOTECH COMPANY LTD., priority 2021, published 2024).

Test system: F30-N16-1 RNA aptamer molecules
Assay: Binding of F30-N16-1 RNA aptamer molecules with different fluorescent molecules (fluorescence spectrum, activation multiple)
Assay type: biochemical
Conditions: for Maximum emission peak (nm) / Maximum excitation peak (nm): complex with F30-N16-1; for Activation Multiple: fluorophore with F30-N16-1
Procedure: Nucleic acid aptamer molecules of N16 or N16 mutants were prepared by using the commonly-used experimental method (I), 2.5 μM of nucleic acid aptamer molecules and 0.5 μM of fluorophore molecules were incubated in a detection buffer (40 mM of HEPES, pH 7.4, 125 mM of KCl, 5 mM of MgCl2, 5% DMSO), and the maximum excitation peak and the maximum emission peak of the fluorescence of the nucleic acid aptamer-fluorophore molecular complex were detected with Synergy Neo2 multifunctional enzyme-labeler. Synergy Neo2 multifunctional enzyme-labeler was used again to detect fluorescence intensity of the nucleic acid aptamer-fluorophore molecular complex under its maximum excitation and emission conditions, the control sample ([…] of fluorophore molecules without nucleic acid aptamer) was also measured under the same conditions, and the ratio of fluorescence intensity was calculated. For example, as for fluorescence of the complex formed by 2.5 μM of N16-1 nucleic acid aptamer and 0.5 μM of I-5-14 fluorophore molecules, the maximum excitation peak is 512 nm and the maximum emission peak is 574 nm. It was detected by the Synergy Neo2 multifunctional enzyme-labeler that the fluorescence intensity of the complex at an excitation condition of 512±10 nm and an emission condition of 574 nm±10 nm was 49,088, while the fluorescence intensity of the control (0.5 μM of I-5-14 fluorophore molecules) under the same detection conditions was 399, so the activation multiple of N16-1 nucleic acid aptamer to I-5-14 fluorophore molecules was 123.
F30-N16-1 RNA aptamer molecules were prepared by using the commonly-used experimental method (I), and were used for detecting basic properties, including fluorescence spectrum and fluorescence activation multiple, of the binding of I-5-14 analogues with N16.

## CN(CCO)c1ccc(/C=C2\OC(=O)NC2=O)s1 [I-5-1]
  Maximum emission peak (nm): 500 nm
  Maximum excitation peak (nm): 460 nm
  Activation Multiple: 14

## CN(CCNS(C)(=O)=O)c1ccc(/C=C2\SC(=O)NC2=S)s1 [I-5-3]
  Maximum emission peak (nm): 580 nm
  Maximum excitation peak (nm): 550 nm
  Activation Multiple: 14

## CN(CCO)c1ccc(/C=C2\SC(=S)NC2=S)s1 [I-5-4]
  Maximum emission peak (nm): 638 nm
  Maximum excitation peak (nm): 625 nm
  Activation Multiple: 47

## CCN1C(=O)S/C(=C\c2ccc(N(C)CCO)s2)C1=O [I-5-5]
  Maximum emission peak (nm): 518 nm
  Maximum excitation peak (nm): 487 nm
  Activation Multiple: 11

## O=C1NC(=S)N/C1=C\c1ccc(N(CCO)CCO)s1 [I-5-6]
  Maximum emission peak (nm): 550 nm
  Maximum excitation peak (nm): 536 nm
  Activation Multiple: 23

## CN1C(=O)O/C(=C\c2ccc(N(C)C)s2)C1=O [I-5-7]
  Maximum emission peak (nm): 504 nm
  Maximum excitation peak (nm): 465 nm
  Activation Multiple: 24

## CN(C)c1ccc(/C=C2\SC(=O)NC2=S)s1 [I-5-8]
  Maximum emission peak (nm): 582 nm
  Maximum excitation peak (nm): 554 nm
  Activation Multiple: 15

## CN(C)c1ccc(/C=C2\SC(=S)N(N)C2=O)s1 [I-5-9]
  Maximum emission peak (nm): 578 nm
  Maximum excitation peak (nm): 552 nm
  Activation Multiple: 17

## CN(C)c1ccc(/C=C2\SC(=S)NC2=S)s1 [I-5-10]
  Maximum emission peak (nm): 642 nm
  Maximum excitation peak (nm): 626 nm
  Activation Multiple: 11

## CN(C)c1ccc(/C=C2\SC(=O)NC2=O)s1 [I-5-11]
  Maximum emission peak (nm): 524 nm
  Maximum excitation peak (nm): 493 nm
  Activation Multiple: 9

## CN(C)c1ccc(/C=C2\NC(=S)NC2=O)s1 [I-5-12]
  Maximum emission peak (nm): 555 nm
  Maximum excitation peak (nm): 535 nm
  Activation Multiple: 11

## CCN1C(=O)O/C(=C\c2ccc(N(C)CCO)cc2)C1=O [I-5-13]
  Maximum emission peak (nm): 492 nm
  Maximum excitation peak (nm): 393 nm
  Activation Multiple: 8

## CN(CCO)c1ccc(/C=C2\SC(=O)NC2=S)cc1 [I-5-15]
  Maximum emission peak (nm): 598 nm
  Maximum excitation peak (nm): 567 nm
  Activation Multiple: 31

## CN(CCO)c1ccc(/C=C2\SC(=S)N(N)C2=S)cc1 [I-5-16]
  Maximum emission peak (nm): 648 nm
  Maximum excitation peak (nm): 615 nm
  Activation Multiple: 11

## CN(CCO)c1ccc(/C=C2\SC(=O)NC2=O)cc1 [I-5-17]
  Maximum emission peak (nm): 506 nm
  Maximum excitation peak (nm): 445 nm
  Activation Multiple: 105

## CN1C(=O)/C(=C/c2ccc(N(C)CCO)cc2)NC1=S [I-5-18]
  Maximum emission peak (nm): 545 nm
  Maximum excitation peak (nm): 473 nm
  Activation Multiple: 57

## CN(C)c1ccc(/C=C2\OC(=O)N(N)C2=O)cc1 [I-5-19]
  Maximum emission peak (nm): 499 nm
  Maximum excitation peak (nm): 397 nm
  Activation Multiple: 18

## CN(C)c1ccc(/C=C2\SC(=S)N(CCC(=O)O)C2=O)cc1 [I-5-20]
  Maximum emission peak (nm): 565 nm
  Maximum excitation peak (nm): 493 nm
  Activation Multiple: 22

## CN(C)c1ccc(/C=C2\SC(=O)NC2=S)cc1 [I-5-21]
  Maximum emission peak (nm): 605 nm
  Maximum excitation peak (nm): 569 nm
  Activation Multiple: 24

## CN(C)c1ccc(/C=C2\SC(=S)NC2=S)cc1 [I-5-22]
  Maximum emission peak (nm): 657 nm
  Maximum excitation peak (nm): 613 nm
  Activation Multiple: 126

## CN(C)c1ccc(/C=C2\SC(=O)NC2=O)cc1 [I-5-23]
  Maximum emission peak (nm): 515 nm
  Maximum excitation peak (nm): 433 nm
  Activation Multiple: 156

## CN(C)c1ccc(/C=C2\NC(=S)NC2=O)cc1 [I-5-24]
  Maximum emission peak (nm): 543 nm
  Maximum excitation peak (nm): 473 nm
  Activation Multiple: 7

## CN(CCO)c1ccc(/C=C2\OC(=O)N(CCC(=O)O)C2=O)c(F)c1 [I-5-25]
  Maximum emission peak (nm): 502 nm
  Maximum excitation peak (nm): 403 nm
  Activation Multiple: 6
